# Earlier results as cited in patent publication US20180368457A1 (Petiva Private Limited, priority 2015, published 2018).
# Assays:
# [1] = in vivo
# [2] = storage temperature 25° C., relative humidity approximately 85%
# [3] = intravenously administered, within 6 hours of treatment
Structure (SMILES),"glycemic index, in words [1]",water pick-up on storage [2],solubility,excreted in the urine [3]
"OCC1O[C@H](OC[C@H]2O[C@](O)(CO)C(O)C2O)C(O)C(O)[C@@H]1O (stereo partly shown) [isomaltulose, Isomaltulose]",very low GI,No significant water pick-up,,
"O=C(CO)[C@H](O)[C@H](O)[C@H](O)CO [allulose, D-Psicose]",low glycemic index,,high solubility,approximately 98%
"OC[C@H]1O[C@](O)(CO[C@H]2O[C@H](CO)[C@@H](O)[C@H](O)[C@H]2O)[C@@H](O)[C@@H]1O [trehalulose, 1-O-α-D-glucopyranosyl-β-D-fructofuranose]",less glycemic,,more soluble in water than its structural isomers sucrose,
